# Measured values taken from US20200038355A1, “ANTIOXIDANTS FOR USE IN OPHTHALMIC SURGERY” (Case Western Reserve University, priority 2017, published 2020).
# “Also recorded” adds a separate entry of the source.
# How the values were obtained:
# [1] = tested on: HLE-B3 cells; test: EMT marker / Wnt-β-catenin immunoblot in human lens epithelial cell line HLE-B3; format: cell-based; details: for αSMA production after BSO stimulation: HLE-B3 cells co-treated with 10 mM NAC or 0.5 mM GSH-EE and 500 μM BSO, 24 hr; for TGFβ2-mediated αSMA production: HLE-B3 cells, 10 mM NAC or 0.5 mM GSH-EE co-incubated with 1 ng/ml TGFβ2, 24 hr; for BSO-increased Ser9 phosphorylation of GSK-3β / BSO-increased β-catenin expression: cells co-treated with 0.5 mM GSH-EE or 10 mM NAC, BSO 24 hr
# Experimental: Cell Culture—Human lens epithelial cells (HLE-B3) were grown in DMEM medium with 10% fetal bovine serum (FBS), 2 mM glutamine and 50 unit/ml penicillin streptomycin (ThermoFisher, Waltham, Mass.) at 37° C. in a humidified 5% CO2 incubator. For primary porcine lens epithelial cell culture, pig eyes were collected at a local slaughterhouse within two hours of postmortem time, placed on ice and transported to the lab (about 1 hr) for immediate processing. First, the isolated lens was incubated with 2 ml of 0.25% trypsin at 37° C. for 2 min to remove any attached non-lens cells. Then, after a brief rinse with HBSS, the lens capsule was isolated and rinsed three times with HBSS before incubation with 2 ml of 0.5% trypsin for 5 min. 5 ml of complete DMEM medium was added and tissue was disrupted by pipetting up and down 10-15 times with a pipette fitted with a 1000 μl tip. The tissue homogenate was then passed through a 100 μm cell strainer. The cells were collected by low speed centrifugation at 150×g and placed in a 35 mm laminin-coated tissue culture dish with DMEM medium supplied with 10% FBS, 2 mM glutamine and 50 unit/ml penicillin streptomycin (ThernoFisher). The cells were cultured at 37° C. in a humidified incubator with 5% CO2.
# (§1) Cells were placed 24 hr before the treatment and fresh medium was replaced immediately before the treatment. The indicated concentrations of BSO, DMF, NAC, GSH-EE or TGFβ2 were added to fresh medium and incubated at various time intervals as indicated. After treatment time, the cells were harvested after three washes with ice-cold PBS and subjected to immunoblot or other assays as described below. For whole lens culture, the serum-free medium with or without BSO, NAC, GSH-EE or TGFβ2 was incubated immediately after isolation for 48 hr and the whole lens or lens capsule was collected for further analysis. For lens explant culture, 48 hr after explant culture, various stimulates were used in fresh serum-free medium for an additional 48 hr, and the explant was fixed with 10% formaldehyde for 10 min before immunofluorescence stain, as described below.
# The cells, whole lens, lens capsule, and lens fibers were collected and lysed in lysis buffer containing 20 mM Tris pH 7.5, 1 mM EDTA, 1 mM EGTA, 150 mM NaCl, 1% Triton X-100, 2.5 mM sodium pyrophosphate, 1 mM bα-Glycerolphosphate, 1 mM Na3VO4, 1 mg/ml Leupeptin, 1 mM PMSF on ice for 10 min. The protein concentration from the supernatant was determined by protein BCA assay (ThermoFisher). The protein extract was further processed for immunoblot analysis and probed for αSMA, collagen I, vimentin, phosphorylated Smad2, phosphorylated Smad3, phosphorylated GSK-3β and (β-catenin. All data were normalized to the level of GAPDH.
# [2] = tested on: lens explant; test: Mouse lens explant culture (ex vivo PCO mimetic model), αSMA immunofluorescence; format: cell-based; details: 10 mM NAC or 0.5 mM GSH-EE co-incubated with 1 ng/ml TGFβ2, 48 hr
# Experimental: The isolated intact lens was rinsed three times with HBSS and then cultured in 12-well-plates with serum-free Medium 199 (ThermoFisher) with 50 unit/ml penicillin streptomycin at 37° C. in 5% CO2 incubator, as described above. The lens explant was cultured following the same procedure as described by a previous report. Tamiya et al., Exp Eye Res 71, 591-597 (2000). In brief, the mouse lens was placed in an anterior-toposterior orientation with the anterior attached to the culture dish. The lens posterior capsule was torn/cut by the tip of extra-fine forceps and then peeled towards anterior capsule and pinned on the plastic culture dish. The lens fiber mass was removed thereafter. The explant was cultured in serum-free MEM medium supplied with 50 unit/ml penicillin streptomycin at 37° C. in 5% CO2 incubator as described above. Only healthy growing explants were used for the described study and any unhealthy looking explants, such as folded explants or those with cell detachment, were discarded.
# as §1, with “For lens explant culture, 48 hr after explant culture, various stimulates were used in fresh serum-free medium for an additional 48 hr, and the explant was fixed with 10% formaldehyde for 10 min before immunofluorescence stain, as described below.” left out
# Confocal microscope—All confocal images were collected by a Leica SP8 gSTED confocal microscope equipped with two 3 Hyd SP GaAsP detectors and the AOBS system lasers include a 405 nm, Argon (458, 476, 488, 496, 514 nm), a tunable white light (470 to 670 nm), and a 592 nm STED depletion laser. For proper comparison, each channel of fluorescence was adjusted to the highest sensitivity/intensity but without over saturation from samples with the strongest signal. […]
Structure (SMILES),αSMA production after BSO stimulation [1],TGFβ2-mediated αSMA production [1],BSO-increased Ser9 phosphorylation of GSK-3β [1],BSO-increased β-catenin expression [1],TGFβ2-induced αSMA elevation in lens explant [2],inhibitory effect on EMT process compared with GSH-EE ([1]; cell culture)
"CCOC(=O)CNC(=O)[C@H](CS)NC(=O)CC[C@H](N)C(=O)O [GSH-EE, glutathione ethyl ester]","alleviated; also recorded: partially, but significantly, block",alleviated; also recorded: significantly alleviate,alleviated,attenuate; also recorded: alleviated,"partially, but significantly, attenuated",–
"CC(=O)N[C@@H](CS)C(=O)O [NAC, N-acetyl cysteine]",alleviated; also recorded: completely abolish,alleviated; also recorded: completely block,attenuate; also recorded: alleviated; also recorded: completely abolished,alleviated,attenuated; also recorded: completely alleviated,much higher inhibitory effect than GSH-EE
